Reference: ChEMBL document CHEMBL1201862, “PubChem BioAssay data set” (2004)
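These data come from cells grown in 96-well plates and exposed to compound for 48 hours at five concentrations. GI50 marks 50% less growth.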 Activity calls are given as the source filed them. Rule as the data show it: active = GI50 up to about 1.1 µM and inactive = higher.

Columns and labels:
Experiment in all cases: NCI anticancer screen, dose series, 48 h
SF-268 = tested on: SF-268
HCT-116 = tested on: HCT-116
RPMI-8226 = tested on: RPMI-8226
A549 = tested on: A549
UACC-257 = tested on: UACC-257
MOLT-4 = tested on: MOLT-4
HCC 2998 = tested on: HCC 2998
RXF 393 = tested on: RXF 393
HL-60 = tested on: HL-60
SN12C = tested on: SN12C
OVCAR-3 = tested on: OVCAR-3
EKVX = tested on: EKVX
OVCAR-5 = tested on: OVCAR-5
SK-MEL-28 = tested on: SK-MEL-28
COLO 205 = tested on: COLO 205
M14 = tested on: M14
UO-31 = tested on: UO-31
HOP-62 = tested on: HOP-62
SK-MEL-5 = tested on: SK-MEL-5
SK-MEL-2 = tested on: SK-MEL-2

| Structure (SMILES) | GI50 (SF-268) | GI50 (HCT-116) | GI50 (RPMI-8226) | GI50 (A549) | GI50 (UACC-257) | GI50 (MOLT-4) | GI50 (HCC 2998) | GI50 (RXF 393) | GI50 (HL-60) | GI50 (SN12C) | GI50 (OVCAR-3) | GI50 (EKVX) | GI50 (OVCAR-5) | GI50 (SK-MEL-28) | GI50 (COLO 205) | GI50 (M14) | GI50 (UO-31) | GI50 (HOP-62) | GI50 (SK-MEL-5) | GI50 (SK-MEL-2) |
| --- | --- | --- | --- | --- | --- | --- | --- | --- | --- | --- | --- | --- | --- | --- | --- | --- | --- | --- | --- | --- |
| COC(=O)C1=Cc2c(OC)cc(OC)c(OC)c2[C@H](c2cc(OC)c(OC)cc2OC)C1C(=O)OC (some centres undefined) | > 100 µM (inactive) | > 100 µM (inactive) | > 100 µM (inactive) | > 100 µM (inactive) | > 10 µM (inactive) | > 100 µM (inactive) | > 100 µM (inactive) | > 100 µM (inactive) | 28.8 µM (inactive) | > 100 µM (inactive) | > 100 µM (inactive) | > 100 µM (inactive) | > 100 µM (inactive) | > 100 µM (inactive) | > 100 µM (inactive) | > 100 µM (inactive) | > 100 µM (inactive) | > 100 µM (inactive) | > 100 µM (inactive) | – |
| COc1ccc(/C=C/C(=N/NC(=O)N/N=C(/C=C/c2ccc(OC)cc2)C(C)(C)CN2CCCCC2)C(C)(C)CN2CCCCC2)cc1 | – | 1.33 µM (inactive) | 1.69 µM (inactive) | 1.86 µM (inactive) | 1.86 µM (inactive) | 1.71 µM (inactive) | 1.74 µM (inactive) | 1.35 µM (inactive) | 1.5 µM (inactive) | 2.7 µM (inactive) | 1.87 µM (inactive) | 2.8 µM (inactive) | 2.96 µM (inactive) | 1.56 µM (inactive) | 1.65 µM (inactive) | 1.71 µM (inactive) | 1.58 µM (inactive) | 2.15 µM (inactive) | 1.63 µM (inactive) | 1.62 µM (inactive) |
| CC(C)[C@H](CCl)NC(=O)c1cccc(C(=O)N[C@H](CCl)C(C)C)n1 (stereo in doubt) | > 100 µM (inactive) | > 100 µM (inactive) | > 100 µM (inactive) | > 100 µM (inactive) | – | > 100 µM (inactive) | > 100 µM (inactive) | > 100 µM (inactive) | > 100 µM (inactive) | > 100 µM (inactive) | > 100 µM (inactive) | > 100 µM (inactive) | > 100 µM (inactive) | > 100 µM (inactive) | > 100 µM (inactive) | > 100 µM (inactive) | > 100 µM (inactive) | > 100 µM (inactive) | > 100 µM (inactive) | – |
| NC(=S)NNC(=O)CCC(=O)Nc1ccc(Cl)cc1Cl | > 100 µM (inactive) | > 100 µM (inactive) | 43.5 µM (inactive) | > 100 µM (inactive) | > 100 µM (inactive) | 55.3 µM (inactive) | > 100 µM (inactive) | > 100 µM (inactive) | > 100 µM (inactive) | > 100 µM (inactive) | > 100 µM (inactive) | – | > 100 µM (inactive) | > 100 µM (inactive) | > 100 µM (inactive) | 37.1 µM (inactive) | > 100 µM (inactive) | > 100 µM (inactive) | 62.7 µM (inactive) | 42.9 µM (inactive) |
| CC(CN1CCN(CC(C)Nc2ccnc3cc(Cl)ccc23)CC1)Nc1ccnc2cc(Cl)ccc12 (centres undefined) | 2.81 µM (inactive) | 13.4 µM (inactive) | 9.79 µM (inactive) | 17.8 µM (inactive) | 19.4 µM (inactive) | 9.38 µM (inactive) | 16.6 µM (inactive) | 13.2 µM (inactive) | 8.93 µM (inactive) | 22.4 µM (inactive) | 22.8 µM (inactive) | 19 µM (inactive) | 23.2 µM (inactive) | 1.6 µM (inactive) | 14.4 µM (inactive) | 14.5 µM (inactive) | 22.7 µM (inactive) | 22.5 µM (inactive) | 17.5 µM (inactive) | – |
| COc1cc2c(c(OC)c1OC)-c1ccc(SC)c(=O)cc1C(CC(=O)Oc1ccccc1F)C2 (centres undefined) | 0.036 µM (active) | < 0.0075 µM (active) | < 0.0075 µM (active) | 0.0226 µM (active) | – | 0.0531 µM (active) | 0.0307 µM (active) | < 0.0075 µM (active) | < 0.0075 µM (active) | 0.0193 µM (active) | 0.0119 µM (active) | – | 2.94 µM (inactive) | 0.055 µM (active) | 0.0136 µM (active) | 0.0175 µM (active) | 0.127 µM (active) | 0.0175 µM (active) | 0.0215 µM (active) | 0.0251 µM (active) |
| COC(=O)/C=C/c1ccc2c(c1)CC1(Cc3ccccc3C1)C2 | – | 0.0478 µM (active) | 60.7 µM (inactive) | 0.0463 µM (active) | > 100 µM (inactive) | 34.9 µM (inactive) | > 100 µM (inactive) | 16.5 µM (inactive) | 30.5 µM (inactive) | > 100 µM (inactive) | > 100 µM (inactive) | 23.6 µM (inactive) | > 100 µM (inactive) | – | > 100 µM (inactive) | > 100 µM (inactive) | > 100 µM (inactive) | > 100 µM (inactive) | 43.2 µM (inactive) | > 100 µM (inactive) |
| C/C(=N/NC(=S)Nc1ccc([N+](=O)[O-])cc1)c1cccc(/C(C)=N\NC(=S)Nc2ccc([N+](=O)[O-])cc2)n1 | – | 0.291 µM (active) | 0.491 µM (active) | 0.594 µM (active) | 1.09 µM (active) | 0.308 µM (active) | 1.02 µM (active) | 0.53 µM (active) | 0.265 µM (active) | 0.671 µM (active) | 0.0867 µM (active) | 0.658 µM (active) | 2.29 µM (inactive) | > 100 µM (inactive) | 0.218 µM (active) | 0.321 µM (active) | 0.382 µM (active) | 0.752 µM (active) | 0.353 µM (active) | 3.99 µM (inactive) |
| CN(C)c1ccc(/C=C2\Oc3ccccc3C2=O)cc1 | > 100 µM (inactive) | > 100 µM (inactive) | > 100 µM (inactive) | > 100 µM (inactive) | > 100 µM (inactive) | > 100 µM (inactive) | > 100 µM (inactive) | > 100 µM (inactive) | > 100 µM (inactive) | > 100 µM (inactive) | > 100 µM (inactive) | > 100 µM (inactive) | – | > 100 µM (inactive) | > 100 µM (inactive) | > 100 µM (inactive) | 52.2 µM (inactive) | > 100 µM (inactive) | > 100 µM (inactive) | – |
| O=C(O)c1nc(-c2ccc(Cl)c(Cl)c2)nc2ccc(Cl)cc12 | 63 µM (inactive) | 66.7 µM (inactive) | > 100 µM (inactive) | > 100 µM (inactive) | > 100 µM (inactive) | 40.8 µM (inactive) | > 100 µM (inactive) | 28.3 µM (inactive) | 16.6 µM (inactive) | > 100 µM (inactive) | 51.9 µM (inactive) | > 100 µM (inactive) | > 100 µM (inactive) | > 100 µM (inactive) | > 100 µM (inactive) | – | > 100 µM (inactive) | 38.2 µM (inactive) | > 100 µM (inactive) | 78 µM (inactive) |
| Cc1nc2ccc(F)cc2c2c1CCO2 | > 100 µM (inactive) | 68.1 µM (inactive) | 80 µM (inactive) | > 100 µM (inactive) | > 100 µM (inactive) | > 100 µM (inactive) | 79.1 µM (inactive) | 36.8 µM (inactive) | 24.5 µM (inactive) | 30.3 µM (inactive) | – | 39.7 µM (inactive) | > 100 µM (inactive) | > 100 µM (inactive) | 72.8 µM (inactive) | 99.1 µM (inactive) | 92.3 µM (inactive) | – | 43.5 µM (inactive) | > 100 µM (inactive) |
